Data reported in patent publication EP3572468B1, “CYANINE DYES AND THEIR USAGE FOR IN VIVO STAINING OF MICROORGANISMS” (PHILIPPS-UNIVERSITÄT MARBURG, priority 2018, dated 2019).

What was measured:
[1] = target: dsDNAhAT (double-stranded DNA hairpin with the consensus sequence ATTA); assay: Fluorescence titration with hairpin dsDNAhAT, binding affinity by DynaFit; details: 1 µM dye in 10 mM Tris pH 7.6 and 50 mM KCI, 20°C, emission at 647 nm, 1:1 binding model, read-out: binding affinity (KD, apparent dissociation constant)
Description: (§1) Fluorescence measurements and tritations were performed on a Jasco FP-6500 spectrofluorometer equipped with a Thermo Haake WKL 26 water recirculator at 20°C. Unless otherwise noted, a 1400 µL fluorescence cuvette of HellmaAnalytics (104F-QS) was used and the measurements were performed with the following settings: increment: 1.0 nm; integration time: 0.2 s; speed: 500 nm/min; sensitivity: medium; excitation slit width: 3 nm; emission slit width: 3 nm; excitation wavelength 610 nm. The emission spectra were recorded from 625 to 750 nm at 20°C. From all spectra, the corresponding background signal was substracted. […] Table 1: Binding sites and sequences of DNA hairpins, which were used for fluorescence titrations experiments.
(§2) All fluorescence titrations followed the same procedure: to 1 mL of 1 µM solution of corresponding cyanine dye derivative in 10 mM Tris pH 7.6 and 50 mM KCI aliquots of a stock solution of the corresponding annealed DNA (dsDNAhAT and dsDNAhGC = 435 µM; dsDNACT = 0.65 mM) were successively added and the fluorescence spectra were recorded in a range from 625-750 nm after 1 min of each addition. […] The fluorescence emission plotted is the resulting mean of the three independent measurements. […]
(§3) All binding affinities were determined by fitting the obtained experimental data in the DynaFit 4.0 software. […]

[2] = system: double-stranded calf thymus DNA (dsDNACT); assay: Fluorescence titration with dsDNACT, binding affinity by DynaFit; details: 1 µM dye in 10 mM Tris pH 7.6 and 50 mM KCI, 20°C, emission at 647 nm, 1:1 binding model, read-out: binding affinity (KD, apparent dissociation constant)
Description: as §1, §2, §3

[3] = system: antibiotic-sensitive Klebsiella pneumoniae (K. pneumoniae); assay: Bacteria culture and staining: growth and FACS labeling of sensitive K. pneumoniae; type: cell-based; details: 2.5 µM dye
Description: (§4) Escherichia coli (E. coli) NEB5α (New England Biolabs) and antibiotic-resistant and -sensitive Klebsiella pneumoniae (K. pneumoniae) were cultured in Luria-Bertani (LB) solid medium (LB-Agar) overnight at 37°C. The source of the K. pneumoniae strands is of no relevance to the invention. The invention may be applied to all types of microorganisms (bacteria, viri, fungi etc.) or other cells, either contained within a sample or isolated from a sample. For staining, growth curve analysis and replating experiments bacteria were suspended in LB liquid medium at an OD600 nm of 1.0 and 800 µL were transferred into a culture tube containing 7.2 mL of LB liquid medium supplemented with DMSO or candidate dyes (2.5 µM) final concentration). Density of bacterial cultures was measured using an Ultrospec 10 Cell Density Meter with 600 nm LED source (Amersham Biosciences). […]
(§5) Bacteria and macrophages were washed with PBS prior to flow cytometry and analysed using a Guava easyCyte flow cytometer (Millipore). FCS3.0 files were analysed using Flowing Software (http://flowingsoftware.btk.fi/). Cells were first gated in the forward- / side-scatter plot to exclude debries, followed by quadrant gating in plots using the fluorescence channels as shown above. […] Propidium iodide signal was recorded in the yellow channel.

[4] = target: dsDNAhGC (double-stranded DNA hairpin with the consensus sequence GGCCC); assay: Fluorescence titration with hairpin dsDNAhGC, binding affinity by DynaFit; details: 1 µM dye in 10 mM Tris pH 7.6 and 50 mM KCI, 20°C, emission at 650 nm, 1:1 binding model, read-out: binding affinity (KD, apparent dissociation constant)
Description: as §1, §2, §3

[5] = system: antibiotic-resistant Klebsiella pneumoniae (K. pneumoniae); type: cell-based; details: 2.5 µM dye
Description: as §4, §5

[6] = Excitation and emission spectra; type: physicochemical; details: aqueous solution; 10 µM in 10 mM Tris pH 7.6 and 50 mM KCI
Description: Fluorescence measurements and tritations were performed on a Jasco FP-6500 spectrofluorometer equipped with a Thermo Haake WKL 26 water recirculator at 20°C. Unless otherwise noted, a 1400 µL fluorescence cuvette of HellmaAnalytics (104F-QS) was used and the measurements were performed with the following settings: increment: 1.0 nm; integration time: 0.2 s; speed: 500 nm/min; sensitivity: medium; excitation slit width: 3 nm; emission slit width: 3 nm; excitation wavelength 610 nm. The emission spectra were recorded from 625 to 750 nm at 20°C. From all spectra, the corresponding background signal was substracted. The used hairpin double-stranded DNAs dsDNAhAT and dsDNAhGC had the sequences depicted in Table. 1. Table 1: Binding sites and sequences of DNA hairpins, which were used for fluorescence titrations experiments.
For each cyanine dye derivative: 6-AzTO-3, 6-TramTO-3 and 6-NH2TO-3, the excitation and emission spectra of a 10 µM solution of the corresponding compound in 1 mL of 10 mM Tris pH 7.6 and 50 mM KCI were measured. The excitation spectra were recorded at an emission of 670 nm in a rage from 500 - 660 nm (slit 5/10 nm), while the emission spectra were measured at an excitation of 590 nm in a range from 600 - 750 nm (slit 5/10 nm). (cf. Fig. 13)

CC[n+]1ccc(/C=C/C=C2\Sc3ccccc3N2CCCCCCn2cc(CN)nn2)c2ccccc21.[I-] [6-TramTO-3, 4-((1E,3Z)-3-(3-(6-(4-(aminomethyl)-1H-1,2,3-triazol-1-yl)hexyl)benzo[d]thiazol-2(3H)-ylidene)prop-1-en-1-yl)-1-ethylquinolin-1-ium iodide]
Kd [1]: 114 ± 30 nM
Kd [2]: 19500 ± 2600 nM
bacterial growth in presence of dye [3]: grew normally
fluorescent labeling of live bacteria (FACS) ([3]; OD600 = 2.0): successfully fluorescently labeled
Kd [4]: 104 ± 54 nM
bacterial growth in presence of dye [5]: grew normally
fluorescent labeling of live bacteria (FACS) ([5]; OD600 = 2.0): successfully fluorescently labeled
long wavelength maximum of emission [6]: 645 nm
long wavelength maximum of excitation [6]: 633 nm
